The text below walks through data of US8389557B2, “Triazole derivatives useful as Axl inhibitors” (Rigel Pharmaceuticals, Inc., priority 2005, dated 2013).

Each structure is given as a SMILES string.

One experiment deals with T1, Axl (Homo sapiens, UniProt P30530).
T1 construct: endogenous in cells; host or cells: HeLa cells
T1 sequence (P30530 26-894): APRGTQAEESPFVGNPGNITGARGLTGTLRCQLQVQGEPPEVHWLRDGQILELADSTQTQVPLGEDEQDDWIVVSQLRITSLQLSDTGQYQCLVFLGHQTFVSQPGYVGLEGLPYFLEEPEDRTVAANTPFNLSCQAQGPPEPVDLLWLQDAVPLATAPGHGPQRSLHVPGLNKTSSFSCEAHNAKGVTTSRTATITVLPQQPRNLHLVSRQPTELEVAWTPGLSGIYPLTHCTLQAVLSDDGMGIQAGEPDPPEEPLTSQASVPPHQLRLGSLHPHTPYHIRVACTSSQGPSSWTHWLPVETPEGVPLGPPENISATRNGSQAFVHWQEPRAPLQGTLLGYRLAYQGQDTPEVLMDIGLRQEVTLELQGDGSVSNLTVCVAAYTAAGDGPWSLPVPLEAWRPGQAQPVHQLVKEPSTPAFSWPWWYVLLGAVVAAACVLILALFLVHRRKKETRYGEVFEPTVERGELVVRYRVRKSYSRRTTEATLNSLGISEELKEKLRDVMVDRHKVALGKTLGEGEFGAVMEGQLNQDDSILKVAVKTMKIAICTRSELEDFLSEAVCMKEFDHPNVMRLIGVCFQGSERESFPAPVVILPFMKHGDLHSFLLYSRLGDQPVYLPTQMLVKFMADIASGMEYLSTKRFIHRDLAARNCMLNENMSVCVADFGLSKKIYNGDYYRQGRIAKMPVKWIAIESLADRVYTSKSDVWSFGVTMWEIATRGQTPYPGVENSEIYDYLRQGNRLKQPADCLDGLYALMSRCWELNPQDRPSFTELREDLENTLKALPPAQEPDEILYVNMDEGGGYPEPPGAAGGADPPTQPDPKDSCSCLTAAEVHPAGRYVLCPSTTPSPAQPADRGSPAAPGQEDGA
Put plainly: Phospho-Akt in-cell Western assay (inhibition of Axl activity). The note with it: Table 2; Hela cells, Axl antibody cross-linking stimulation, phospho-Akt chemiluminescence. The format is cell-based. In a few lines: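 HeLa cells on poly-L-lysine, starved 24 h in 0.5% FCS DMEM with Axl/Fc 500 ng/mL, pre-treated with compound 1 h at 37° C. Axl stimulated 5 min by anti-Axl/anti-mouse antibody cross-linking. Fixed cells probed with anti-phospho-Akt and HRP secondary, chemiluminescence read.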
Regarding `CC(C)Oc1ccc(C(=O)n2nc(N)nc2Nc2ccc(N3CCN(C)CC3)cc2)cc1` [compound 360, 3-amino-1-(4-(iso-propoxy)phenyl)carbonyl-5-(4-(4-methylpiperazin-1-yl)phenylamino]-1H-1,2,4-triazole], the IC50 (in general, the concentration that gives 50% inhibition) lay within 1000 to 10000 nM. Same read-out and setting: under `CN1CCN(c2ccc(Nc3nc(N)nn3C(=O)c3ccc(N(C)C)cc3)cc2)CC1` [compound 362, 3-amino-1-(4-(dimethylamino)phenyl)carbonyl-5-(4-(4-methylpiperazin-1-yl)phenylamino]-1H-1,2,4-triazole] stands 1000 to 10000 nM; under `CN1CCN(c2ccc(Nc3nc(N)nn3C(=O)c3cccc(N(C)C)c3)cc2)CC1` [compound 364, 3-amino-1-(3-(dimethylamino)phenyl)carbonyl-5-(4-(4-methylpiperazin-1-yl)phenylamino]-1H-1,2,4-triazole], 1000 to 10000 nM.

The experiment is the same for the next values; noted with them: Table 3; Hela cells, Axl antibody cross-linking stimulation, phospho-Akt chemiluminescence.
As to `CN1CCN(c2ccc(Nc3nc(N)n(C(=O)C4CC5CCC4C5)n3)cc2)CC1` (stereo not shown) [compound 365, 5-amino-1-(bicyclo[2.2.1]heptan-2-yl)carbonyl-3-[4-(4-methylpiperazin-1-yl)phenylamino]-1H-1,2,4-triazole], the 50% inhibitory concentration (IC50) is greater than 20000 nM. Molecule `Nc1nc(Nc2ccc(OCCN3CCCC3)cc2)nn1C(=O)c1c[nH]c2ccccc12` [compound 366, 5-amino-1-(1H-indol-3-yl)carbonyl-3-[4-[2-(pyrrolidin-1-yl)ethoxy]phenylamino]-1H-1,2,4-triazole] had an IC50 of 1000 to 10000 nM. On the same count and under the same terms, the value for `Nc1nc(Nc2ccc(OCCN3CCCC3)cc2)nn1C(=O)c1cc2ccccc2s1` [compound 367, 5-amino-1-(benzo[b]thiophen-2-yl)carbonyl-3-[4-[2-(pyrrolidin-1-yl)ethoxy]phenylamino]-1H-1,2,4-triazole] was less than 1000 nM; that for `Nc1nc(Nc2ccc(OCCN3CCCC3)cc2)nn1C(=O)c1ccc2sccc2c1` [compound 369, 5-amino-1-(benzo[b]thiophen-5-yl)carbonyl-3-[4-[2-(pyrrolidin-1-yl)ethoxy]phenylamino]-1H-1,2,4-triazole] was less than 1000 nM. Same read-out and setting: the value for `Nc1nc(Nc2ccc(OCCn3ccnc3)cc2)nn1C(=O)c1ccc2cc[nH]c2c1` [compound 375, 5-amino-1-(1H-indol-6-yl)carbonyl-3-[4-[2-(imidazol-1-yl)ethoxy]phenylamino]-1H-1,2,4-triazole] was less than 1000 nM. On to `Nc1nc(Nc2ccc(OCCn3ccnc3)cc2)nn1C(=O)c1ccc2sccc2c1` [compound 377, 5-amino-1-(benzo[b]thiophen-5-yl)carbonyl-3-[4-[2-(imidazol-1-yl)ethoxy]phenylamino]-1H-1,2,4-triazole], for which the IC50 was less than 1000 nM. Still for that read-out and setting: the value for `Nc1nc(Nc2ccc(OCCn3ccnc3)cc2)nn1C(=O)c1cc2ccccc2s1` [compound 379, 5-amino-1-(benzo[b]thiophen-2-yl)carbonyl-3-[4-[2-(imidazol-1-yl)ethoxy]phenylamino]-1H-1,2,4-triazole] was less than 1000 nM; that for `Nc1nc(Nc2ccc(OCCN3CC[C@H](F)C3)cc2)nn1C(=O)c1ccc2c(c1)OCCO2` [compound 386, 5-amino-1-(1,4-benzodioxan-6-yl)carbonyl-3-[4-[2-((S)-3-fluoropyrrolidin-1-yl)ethoxy]phenylamino]-1H-1,2,4-triazole] was less than 1000 nM.

Staying with this experiment, now noted: Table 4; Hela cells, Axl antibody cross-linking stimulation, phospho-Akt chemiluminescence.
With `Nc1nc(Nc2ccc(OCCN3CCCC3)cc2)n(C(=O)c2cc3ccccc3s2)n1` [compound 368, 3-amino-1-(benzo[b]thiophen-2-yl)carbonyl-5-[4-[2-(pyrrolidin-1-yl)ethoxy]phenylamino]-1H-1,2,4-triazole], the IC50 lay within 1000 to 10000 nM. On the same count and under the same terms, the value for `Nc1nc(Nc2ccc(OCCn3ccnc3)cc2)n(C(=O)c2ccc3cc[nH]c3c2)n1` [compound 376, 3-amino-1-(1H-indol-6-yl)carbonyl-5-[4-[2-(imidazol-1-yl)ethoxy]phenylamino]-1H-1,2,4-triazole] was less than 1000 nM; that for `Nc1nc(Nc2ccc(OCCn3ccnc3)cc2)n(C(=O)c2ccc3sccc3c2)n1` [compound 378, 3-amino-1-(benzo[b]thiophen-5-yl)carbonyl-5-[4-[2-(imidazol-1-yl)ethoxy]phenylamino]-1H-1,2,4-triazole] was less than 1000 nM.

Molecule `Nc1nc(Nc2ccc(OCCN3CC[C@H](F)C3)cc2)n(C(=O)c2ccc3c(c2)OCCO3)n1` [compound 387, 3-amino-1-(1,4-benzodioxan-6-yl)carbonyl-5-[4-[2-((S)-3-fluoropyrrolidin-1-yl)ethoxy]phenylamino]-1H-1,2,4-triazole] displayed an IC50 of less than 1000 nM.

The experiment is the same for the next values; noted with them: inhibition of Axl activity, phospho-Akt in-cell Western assay; Table 1.
As to `CC(C)Oc1ccc(C(=O)n2nc(Nc3ccc(N4CCN(C)CC4)cc3)nc2N)cc1` [compound 359, 5-amino-1-(4-(iso-propoxy)phenyl)carbonyl-3-[4-(4-methylpiperazin-1-yl)phenylamino]-1H-1,2,4-triazole], the IC50 is less than 1000 nM. `CN1CCN(c2ccc(Nc3nc(N)n(C(=O)c4ccc(N(C)C)cc4)n3)cc2)CC1` [compound 361, 5-amino-1-(4-(dimethylamino)phenyl)carbonyl-3-[4-(4-methylpiperazin-1-yl)phenylamino]-1H-1,2,4-triazole]: the concentration for half-maximal inhibition (IC50) is less than 1000 nM. The same measure, in the same setting: under `CN1CCN(c2ccc(Nc3nc(N)n(C(=O)c4cccc(N(C)C)c4)n3)cc2)CC1` [compound 363, 5-amino-1-(3-(dimethylamino)phenyl)carbonyl-3-[4-(4-methylpiperazin-1-yl)phenylamino]-1H-1,2,4-triazole] stands less than 1000 nM; under `CC(C)(C)Oc1ccc(C(=O)n2nc(Nc3ccc(OCCn4ccnc4)cc3)nc2N)cc1` [compound 370, 5-amino-1-(4-(tert-butoxy)phenyl)carbonyl-3-[4-[2-(imidazol-1-yl)ethoxy]phenylamino]-1H-1,2,4-triazole], less than 1000 nM. Still for that read-out and setting: under `CC(C)(C)Oc1cccc(C(=O)n2nc(Nc3ccc(OCCn4ccnc4)cc3)nc2N)c1` [compound 371, 5-amino-1-(3-(tert-butoxy)phenyl)carbonyl-3-[4-[2-(imidazol-1-yl)ethoxy]phenylamino]-1H-1,2,4-triazole] stands 1000 to 10000 nM; under `CC(C)Oc1ccc(C(=O)n2nc(Nc3ccc(OCCn4ccnc4)cc3)nc2N)cc1` [compound 372, 5-amino-1-(4-(iso-propoxy)phenyl)carbonyl-3-[4-[2-(imidazol-1-yl)ethoxy]phenylamino]-1H-1,2,4-triazole], less than 1000 nM.

As to `CN(C)c1ccc(C(=O)n2nc(Nc3ccc(OCCn4ccnc4)cc3)nc2N)cc1` [compound 373, 5-amino-1-(4-(dimethylamino)phenyl)carbonyl-3-[4-[2-(imidazol-1-yl)ethoxy]phenylamino]-1H-1,2,4-triazole], the 50% inhibitory concentration (IC50) is less than 1000 nM. Still for that read-out and setting: under `CN(C)c1cccc(C(=O)n2nc(Nc3ccc(OCCn4ccnc4)cc3)nc2N)c1` [compound 374, 5-amino-1-(3-(dimethylamino)phenyl)carbonyl-3-[4-[2-(imidazol-1-yl)ethoxy]phenylamino]-1H-1,2,4-triazole] stands 1000 to 10000 nM. Still for that read-out and setting: the value for `COc1ccc(C(=O)n2nc(Nc3ccc(OCCN4CCCC4)cc3)nc2N)cc1F` [compound 381, 5-amino-1-(3-fluoro-4-methoxyphenyl)carbonyl-3-[4-[2-(pyrrolidin-1-yl)ethoxy]phenylamino]-1H-1,2,4-triazole] was less than 1000 nM; that for `Nc1nc(Nc2ccc(OCCN3CCCC3)cc2)nn1C(=O)c1ccc(N2CCOCC2)cc1` [compound 382, 5-amino-1-(4-(morpholin-4-yl)phenyl)carbonyl-3-[4-[2-(pyrrolidin-1-yl)ethoxy]phenylamino]-1H-1,2,4-triazole] was less than 1000 nM. The same measure, in the same setting: under `CN1CCN(c2ccc(C(=O)n3nc(Nc4ccc(OCCN5CCCC5)cc4)nc3N)cc2)CC1` [compound 383, 5-amino-1-(4-(4-methylpiperazin-1-yl)phenyl)carbonyl-3-[4-[2-(pyrrolidin-1-yl)ethoxy]phenylamino]-1H-1,2,4-triazole] stands less than 1000 nM; under `CC(C)(C)Oc1ccc(C(=O)n2nc(Nc3ccc(OCCN4CC[C@H](F)C4)cc3)nc2N)cc1` [compound 384, 5-amino-1-(4-(tert-butoxy)phenyl)carbonyl-3-[4-[2-((S)-3-fluoropyrrolidin-1-yl)ethoxy]phenylamino]-1H-1,2,4-triazole], less than 1000 nM. `CN(C)c1ccc(C(=O)n2nc(Nc3ccc(OCCN4CC[C@H](F)C4)cc3)nc2N)cc1` [compound 385, 5-amino-1-(4-(dimethylamino)phenyl)carbonyl-3-[4-[2-((S)-3-fluoropyrrolidin-1-yl)ethoxy]phenylamino]-1H-1,2,4-triazole] gave an IC50 of less than 1000 nM.
